Data as given in patent publication US6432438B1, “Biodegradable vehicle and filler” (priority 1997, dated 2002).
Counter-ions that a name gives are not always drawn.

What was measured:
[1] = hydrochloride salt compared to the base; cited from earlier work
[2] = Drug release from drug-loaded biodegradable vehicles at 37° C. in isotonic phosphate buffer; type: physicochemical; conditions: for drug release: drug 20% w/w
Protocol: A polymer (25% w/w of 50/50 lactide-co-glycolide copolymer, inherent viscosity of 0.59) was dissolved in a minimum quantity of acetone. […] The resulting solutions were stirred to yield uniform mixtures. Acetone was evaporated from the mixtures by heating at 60-75° C. with constant stirring. The biodegradable vehicles were kept in a vacuum oven at 60-75° C. overnight to ensure complete removal of acetone. […] Oxytetracycline base (20% w/w) was added to each biodegradable vehicle and mixed thoroughly to ensure uniform distribution of the drug in the formulations. Drug release from the drug-loaded biodegradable vehicles was performed at 37° C. in isotonic phosphate buffer containing sodium sulfite as an antioxidant. […]
A polymer (25% w/w of 50/50 lactide-co-glycolide copolymer, inherent viscosity of 0.59) was dissolved in a minimum quantity of acetone. Either pure polyethylene glycol 400, triethyl citrate (TEC) or acetyl triethyl citrate (ATEC) was added to the polymer solution. The resulting solutions were stirred to yield uniform mixtures. Acetone was evaporated from the mixtures by heating at 60-75° C. with constant stirring. The biodegradable vehicles were kept in a vacuum oven at 60-75° C. overnight to ensure complete removal of acetone. […] Oxytetracycline base (20% w/w) was added to each biodegradable vehicle and mixed thoroughly to ensure uniform distribution of the drug in the formulations. Drug release from the drug-loaded biodegradable vehicles was performed at 37° C. in isotonic phosphate buffer containing sodium sulfite as an antioxidant. Drug release was fastest from formulations prepared with PEG 400, and slowest from those prepared with ATEC.
The resulting solutions were stirred to yield uniform mixtures. Acetone was evaporated from the mixtures by heating at 60-75° C. with constant stirring. The biodegradable vehicles were kept in a vacuum oven at 60-75° C. overnight to ensure complete removal of acetone. […] Oxytetracycline base (20% w/w) was added to each biodegradable vehicle and mixed thoroughly to ensure uniform distribution of the drug in the vehicles. Drug release from the drug-loaded biodegradable vehicles was performed at 37° C. in isotonic phosphate buffer containing sodium sulfite as an antioxidant. Faster drug release was observed from formulations prepared with a 16.67% polymer and 83.3% of plasticizer blends of varying compositions (polymer to plasticizer ratio of 1:5) compared to those prepared from formulations with polymer to plasticizer ratios of […] (i.e. […]). This is because increasing the polymer concentration in the formulations from 16.67% to 33.3% increased the viscosity of the formulations and decreased the drug diffusion from the formulations. […]
The solutions were stirred to yield a uniform mixture. Acetone was evaporated from the mixtures by heating at 60-75° C. with constant stirring. The biodegradable vehicles were kept in a vacuum oven at 60-75° C. overnight to ensure complete removal of acetone. […] Either hydrated naltrexone base (20% w/w) or naltrexone hydrochloride (20% w/w) was added to the biodegradable vehicles and mixed thoroughly to ensure uniform distribution of the drugs in the formulations. Drug release from the drug-loaded biodegradable vehicles was performed at 37° C. in isotonic phosphate buffer. […] This is because the solubility of the naltrexone hydrochloride in the dissolution buffer is much greater than that of the hydrated naltrexone base.
A similar drug release study was performed with formulations containing either 20% oxytetracycline hydrochloride or 20% oxytetracycline base. […] The solutions were stirred to yield a uniform mixture. Acetone was evaporated from the mixtures by heating at 60-75° C. with constant stirring. The biodegradable vehicles were kept in a vacuum oven at 60-75° C. overnight to ensure complete removal of acetone. […]

[3] = Solubility in water / dissolution buffer; type: physicochemical; conditions: compared to hydrated naltrexone base; isotonic phosphate buffer
[4] = Drug release from drug-loaded biodegradable vehicles at 37° C. in isotonic phosphate buffer; type: physicochemical; conditions: compared to hydrated naltrexone base, 25% polymer (i.v. 0.64) with pure PEG 400 or 50/50% PEG 400/TEC, drug 20% w/w

## CN(C)[C@@H]1C(O)=C(C(N)=O)C(=O)[C@@]2(O)C(O)=C3C(=O)c4c(O)cccc4[C@@](C)(O)[C@H]3[C@H](O)[C@@H]12 [oxytetracycline hydrochloride]
[1]
  aqueous solubility: greater

## CN(C)[C@@H]1C(=O)C(C(N)=O)=C(O)[C@@]2(O)C(=O)C3=C(O)c4c(O)cccc4[C@@](C)(O)[C@H]3[C@H](O)[C@@H]12 [oxytetracycline base]
[2]; blend of 75% PEG 400 and 25% TEC compared to 50/50% PEG 400/TEC at similar polymer to plasticizer ratios
  drug release: considerably faster
[2]; formulations prepared from TEC, 25% w/w polymer, compared among PEG 400, TEC, ATEC
  drug release: Intermediate
[2]; formulations prepared with ATEC, 25% w/w polymer, compared among PEG 400, TEC, ATEC
  drug release: slowest
[2]; formulations prepared with PEG 400, 25% w/w polymer, compared among PEG 400, TEC, ATEC
  drug release: fastest
[2]; on decreasing inherent viscosity of polymer from 0.76 to 0.15, PEG 400
  drug release: dramatically increased
[2]; on decreasing polymer in the formulations from 25% to 10% (PEG 400 75% to 90%), 37° C.
  drug release: dramatically increased
[2]; on increasing PEG 400 from 0% PEG 400/100% TEC to 100% PEG 400/0% TEC, 25% w/w polymer, 37° C.
  drug release: faster
[2]; on increasing drug in the formulations from 10 to 30% w/w, 25% w/w 50/50 PLGA (i.v. 0.59) + PEG 400, 37° C., isotonic phosphate buffer with sodium sulfite
  cumulative amount of drug released: increased
[2]; polymer to plasticizer ratio 1:5 (16.67% polymer) compared to 1:3, PEG 400/TEC blends
  drug release: Faster

## O=C1CC[C@@]2(O)[C@H]3Cc4ccc(O)c5c4[C@@]2(CCN3CC2CC2)[C@H]1O5 [naltrexone hydrochloride]
[3]
  solubility in the dissolution buffer: much greater
[4]
  drug release: considerably faster
